Several values for one entry are separate records, joined by “and”; a condition that tells them apart may be missing. Identical values can stand only once. Like-named read-outs stand apart in the source and are kept apart here. Square brackets hold non-standard residues; d marks the D form. Peptide text beside a SMILES is read from it. * marks the point of attachment. ξ: configuration not given here. ξTic = O=C(O)C1Cc2ccccc2CN1; ξY = NC(Cc1ccc(O)cc1)C(=O)O; Heptanoyl = CCCCCCC(=O)*; Boc = CC(C)(C)OC(=O)*
What was measured:
[1] = test system: human embryonic lung (HEL) cells; assay: Cytotoxicity, cell morphology (MCC), HEL cells; format: cell-based
TK^+ VZV strain OKA [2] = details: read-out: Antiviral activity EC50 TK^+ VZV strain OKA; VZV in HEL cells; plaque formation reduced by 50%; 20 PFU
TK^− VZV strain 07-1 [3] = details: read-out: Antiviral activity EC50 TK^− VZV strain 07-1.; VZV in HEL cells; plaque formation reduced by 50%; 20 PFU
TK^+ VZV strain OKA [4] = assay: microbe, parasite or virus in culture; details: Human alphaherpesvirus 3, HEL, read-out: Antiviral activity EC50 TK^+ VZV strain OKA, VZV in HEL cells; plaque formation reduced by 50%; 20 PFU
TK^− VZV strain 07-1 [5] = assay: microbe, parasite or virus in culture; details: Human alphaherpesvirus 3, HEL, read-out: Antiviral activity EC50 TK^− VZV strain 07-1., VZV in HEL cells; plaque formation reduced by 50%; 20 PFU
[6] = test system: cytomegalovirus (HCMV) AD-169 strain; details: read-out: Antiviral activity EC50 AD-169 strain; HCMV in HEL cells; plaque formation reduced by 50%; 100 PFU
[7] = test system: cytomegalovirus (HCMV) AD-169 strain; assay: microbe, parasite or virus in culture; details: Human betaherpesvirus 5, AD169, HEL, read-out: Antiviral activity EC50 AD-169 strain, HCMV in HEL cells; plaque formation reduced by 50%; 100 PFU
[8] = test system: SARS-COV-2 1074 # 2 strain
Vero cells [9] = test system: Vero cells
in vitro = details: African green monkey
[10] = test system: SARS-COV-2 1074 # 2 strain; assay: microbe, parasite or virus in culture; details: Severe acute respiratory syndrome coronavirus 2, Vero, read-out: Antiviral activity EC50 1074 # 2 strain Vero cells
[11] = test system: SARS-COV-2 UK (NVDBB) strain; assay: microbe, parasite or virus in culture; details: Severe acute respiratory syndrome coronavirus 2, Vero, read-out: Antiviral activity EC50 UK (NVDBB) strain Vero cells
Vero cells [12] = format: cell-based
[13] = test system: SARS-COV-2 UK (NVDBB) strain
[14] = biological target: T1, SARS-COV-2 M^pro (3264-3569aa) (Severe acute respiratory syndrome coronavirus 2, UniProt P0DTD1); assay: FRET assay for TRIP on SARS-COV-2 main protease; format: biochemical
T1 construct: SARS-COV-2 M^pro (3264-3569aa); purchased Proteros WTH_20_1

[15] = test system: cytomegalovirus (HCMV) Davis strain; details: read-out: Antiviral activity EC50 Davis strain; HCMV in HEL cells; plaque formation reduced by 50%; 100 PFU
M^pro enzyme = M^pro enzyme (Severe acute respiratory syndrome coronavirus 2, UniProt P0DTD1); details: MM-GBSA, literature Di Micco et al. 2021; cited from earlier work

Compound	Cytotoxicity Cell morphology (MCC) ([1]; Table 4 (VZV experiment))	EC50 (TK^+ VZV strain OKA [2])	EC50 (TK^− VZV strain 07-1 [3])	Cytotoxicity Cell morphology (MCC) ([1]; Table 3 (HCMV experiment))	EC50 [6]	IC50 [14]	further results
O=c1[nH]c(=O)n([C@H]2C[C@H](O)[C@@H](CO)O2)cc1/C=C/Br [Brivudine (BVDU), Brivudine, reference compound]	>300.3 μM	0.17 µM	4.53 µM				EC50 (TK^+ VZV strain OKA [4]): 0.27 µM; EC50 (TK^− VZV strain 07-1 [5]): 5.89 µM
Nc1ccn(C[C@@H](CO)OCP(=O)(O)O)c(=O)n1 [Cidofovir (CDV), Cidofovir, reference compound]				317 μM	1.08 µM		EC50 [7]: 1.39 µM
CCC(CC)COC(=O)[C@H](C)N[P@](=O)(OC[C@H]1O[C@@](C#N)(c2ccc3c(N)ncnn23)[C@H](O)[C@@H]1O)Oc1ccccc1 [Remdesivir]							EC50 ([8]; read-out: Antiviral activity EC50 1074 # 2 strain Vero cells): 1.17 µM; CC50 (Vero cells [9]; African green monkey): 59.1 µM; CC50 (in vitro; Cytotoxicity Cell growth (CC50)): > 80 µM; EC50 [10]: 1.01 µM; EC50 [11]: 0.19 µM
NC(=O)c1nc(F)cnc1O [T-705, reference compound]							Cytotoxicity Cell morphology (MCC) (Vero cells [12]): >200 μg/ml; Antiviral activity EC50 1074 # 2 strain Vero cells [8]: 76.15 mg/L and 81.79 mg/L; Antiviral activity EC50 UK (NVDBB) strain Vero cells [13]: 23.39 mg/L; Cytotoxicity Cell growth (CC50) (Vero cells [9]): >200 mg/L
CC(C)C[C@H](C=O)NC(=O)[C@H](Cc1ccccc1)NC(=O)C1Cc2ccccc2CN1 (stereo partly drawn) [TRIP 3] (H-[ξTic]-Phe-[dL]-aldehyde)						> 425 µM	
CC(=O)NCC(=O)N[C@H](Cc1ccccc1)C(=O)N[C@H](C=O)Cc1c[nH]cn1 [TRIP 5] (Ac-Gly-[dF]-His-aldehyde)	>100 μM	> 100 µM	> 100 µM	100 μM	> 20 µM	2.51 ± 0.24 µM	Kd [14]: 1.26 ± 0.12 µM; EC50 [15]: > 100 µM; CC50 (in vitro): > 100 µM
CC(=O)NCC(=O)NC(Cc1ccc(O)cc1)C(=O)N[C@H](C=O)Cc1c[nH]cn1 (stereo partly drawn) [TRIP 23] (Ac-Gly-[ξY]-His-aldehyde)						198 µM	
O=CCNC(=O)[C@@H](Cc1c[nH]cn1)NC(=O)[C@H](Cc1c[nH]cn1)NC(=O)C1Cc2ccccc2CN1 (stereo partly drawn) [TRIP 41] (H-[ξTic]H[dH]G-aldehyde)						> 425 µM	
CC(=O)NCC(=O)N[C@@H](Cc1ccccc1)C(=O)N[C@H](Cc1c[nH]cn1)C(=O)NCC=O [TRIP 42] (Ac-GF[dH]G-aldehyde)						> 425 µM	
CC(C)(C)OC(=O)NCC(=O)N[C@H](Cc1ccccc1)C(=O)N[C@H](C=O)Cc1c[nH]cn1 [TRIP 43] (Boc-Gly-[dF]-His-aldehyde)	>100 μM	> 100 µM	> 100 µM	100 μM	> 20 µM		EC50 [15]: > 100 µM; CC50 (in vitro): > 100 µM
CCCCCCC(=O)NCC(=O)N[C@H](Cc1ccccc1)C(=O)N[C@H](C=O)Cc1c[nH]cn1 [TRIP 44] (Heptanoyl-Gly-[dF]-His-aldehyde)	>100 μM	> 100 µM	> 100 µM	100 μM	> 20 µM		EC50 [15]: > 100 µM; CC50 (in vitro): > 100 µM
larazotide acetate [AT1001 acetate]							docking in the catalytic domain of the M^pro enzyme (M^pro enzyme): docks extremely well
